Consider 15 molecules from patent US12692264B2, “Pyrimidine or pyridine derivative, preparation method therefor, and application thereof in pharmacy” (ABBISKO THERAPEUTICS CO., LTD., priority 2021, dated 2026).

Common to all, as to type: cell-based
One assay relates to A431 (EGFR-WT). Briefly: Cell proliferation study (CellTiter-Glo, 72 hrs), A431. The note with it: Homo sapiens, A-431, A431 cells, CTG, * = average of multiple measurements. How it is done: (§1) (I) Reagents and Materials
(§2) • Fetal bovine serum FBS (GBICO, Cat #10099-141); • CellTiter-Glo® luminescent cell viability assay kit (Promega, Cat #G7572); • Black transparent flat-bottom 96-well plate (Corning®, Cat #3603). (II) Instruments • SpectraMax multi-label microplate reader MD, 2104-0010A; • Carbon dioxide incubator, Thermo Scientific 3100 series; • Biological safety cabinet, Thermo Scientific, 1300 series model A2; • Inverted microscope, Olympus, CKX41SF; • Siemens refrigerator KK25E76T1. (III) Cell Lines and Culture Conditions
(§3) (IV) Experimental Procedures 1. Cell Culture and Inoculation: • (1) Cells in the logarithmic growth phase were harvested and counted using a […]. The cell viability was determined by the trypan blue dye exclusion method to ensure cell viability above 90%. • (2) The cell concentration was adjusted to reach a desired final density; 90 μL of cell suspension was added to a 96-well plate. • (3) The cells were incubated overnight in the 96-well plate at 37° C., 5% CO2 and with 95% humidity. 2. T0 Benchmark Data: • (1) 10 μL of PBS was added to each well of the TO plate containing the cells. • (2) The CTG reagent was thawed and the cell plate was equilibrated to room temperature for 30 min. • (3) An equal volume of CTG solution was added to each well. • (4) The cells were lysed by shaking on an orbital shaker for 5 min. • (5) The cell plate was left to stand at room temperature for 20 min to stabilize the fluorescence signal. • (6) The fluorescence signal values of TO were read. 3. Dilution and Addition of Compounds • (1) According to the compound information table, a corresponding volume of DMSO was added to the corresponding compound powder to prepare a 10 mM stock solution. • (2) A 1000-fold, 3.16-fold-diluted compound solution was prepared. • (3) The 1000× diluted compound solution was diluted 100-fold with PBS to prepare a 10-fold compound solution with a maximum concentration of 10 μM, including 9 concentrations, with 3.16-fold dilution, and 10 μL of the medicament solution was added to each well of the 96-well plate to seed the cells. Triplicate wells were set for each compound concentration, with a final concentration of DMSO being 0.1%. • (4) The cells were placed in the 96-well plate containing the medicament at 37° C., 5% CO2 and with 95% humidity, and cultured for 72 hrs before CTG analysis. 4. Fluorescence Signal Reading • (1) The CTG reagent was thawed and the cell plate was equilibrated to room temperature for 30 min. • (2) An equal volume of CTG solution was added to each well. • (3) The cells were lysed by shaking on an orbital shaker for 5 min. • (4) The cell plate was left to stand at room temperature for 20 min to stabilize the fluorescence signal. • (5) The fluorescence values were read. 5. Data Processing
(§4) Data were analyzed using GraphPad Prism 7.0 software and fitted data were regressed using non-linear S-curves to obtain dose-response curves from which IC50 values (in nM) were calculated.

Assay [1] concerns the target Ba/F3 EGFR-D770-N771ins_SVD (Homo sapiens, UniProt P00533, DUP768-770, cells depend on it). Briefly: Cell proliferation study (CellTiter-Glo, 72 hrs), Ba/F3 EGFR-D770-N771ins_SVD. The settings on record: CTG, * = average of multiple measurements, read-out: Ba/F3 EGFR-D770-N771ins_SVD IC50. How it is done: as §1, §2, §3, §4
In assay [2] the target is Ba/F3 EGFR-V769_D770insASV (Homo sapiens, UniProt P00533, DUP767-769, cells depend on it). Briefly: Cell proliferation study (CellTiter-Glo, 72 hrs), Ba/F3 EGFR-V769_D770insASV. The settings on record: CTG, * = average of multiple measurements, read-out: Ba/F3 EGFR-V769_D770insASV IC50. How it is done:
as §1, §2, §3, §4

pIC50: −log10 of the molar value.

Ba/F3 EGFR-D770-N771ins_SVD, sequence (P00533 with tags, fused parts or gaps DUP768-770): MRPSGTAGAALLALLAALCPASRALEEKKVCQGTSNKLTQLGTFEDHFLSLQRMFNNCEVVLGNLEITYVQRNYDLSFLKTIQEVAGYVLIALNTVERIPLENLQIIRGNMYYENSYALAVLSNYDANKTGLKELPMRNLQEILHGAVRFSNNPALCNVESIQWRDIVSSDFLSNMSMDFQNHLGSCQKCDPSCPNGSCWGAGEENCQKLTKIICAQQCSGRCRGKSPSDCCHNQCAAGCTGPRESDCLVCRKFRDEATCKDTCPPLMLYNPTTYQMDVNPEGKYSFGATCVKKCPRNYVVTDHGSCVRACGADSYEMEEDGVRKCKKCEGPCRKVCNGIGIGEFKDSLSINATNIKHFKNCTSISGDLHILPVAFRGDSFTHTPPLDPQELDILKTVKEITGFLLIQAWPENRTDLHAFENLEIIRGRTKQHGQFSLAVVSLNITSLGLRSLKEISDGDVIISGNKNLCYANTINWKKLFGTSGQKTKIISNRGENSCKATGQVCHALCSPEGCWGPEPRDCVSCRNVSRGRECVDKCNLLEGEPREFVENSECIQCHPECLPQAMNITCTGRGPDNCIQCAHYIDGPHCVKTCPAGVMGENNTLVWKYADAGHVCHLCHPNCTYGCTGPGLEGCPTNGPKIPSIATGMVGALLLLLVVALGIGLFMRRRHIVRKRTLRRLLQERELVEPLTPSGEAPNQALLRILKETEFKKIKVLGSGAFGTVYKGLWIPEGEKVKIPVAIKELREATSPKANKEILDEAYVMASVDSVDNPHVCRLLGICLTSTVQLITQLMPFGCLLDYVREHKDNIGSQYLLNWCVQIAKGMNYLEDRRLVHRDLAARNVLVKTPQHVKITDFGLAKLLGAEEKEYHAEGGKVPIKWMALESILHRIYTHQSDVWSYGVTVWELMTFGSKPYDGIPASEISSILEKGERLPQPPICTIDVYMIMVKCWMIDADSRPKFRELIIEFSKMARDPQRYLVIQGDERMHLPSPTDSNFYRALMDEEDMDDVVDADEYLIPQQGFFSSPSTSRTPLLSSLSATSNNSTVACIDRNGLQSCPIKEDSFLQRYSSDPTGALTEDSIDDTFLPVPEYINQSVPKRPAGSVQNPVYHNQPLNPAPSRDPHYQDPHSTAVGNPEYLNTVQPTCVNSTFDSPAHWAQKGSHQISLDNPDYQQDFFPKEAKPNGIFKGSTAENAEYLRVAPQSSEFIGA
Ba/F3 EGFR-V769_D770insASV, sequence (P00533 with tags, fused parts or gaps DUP767-769): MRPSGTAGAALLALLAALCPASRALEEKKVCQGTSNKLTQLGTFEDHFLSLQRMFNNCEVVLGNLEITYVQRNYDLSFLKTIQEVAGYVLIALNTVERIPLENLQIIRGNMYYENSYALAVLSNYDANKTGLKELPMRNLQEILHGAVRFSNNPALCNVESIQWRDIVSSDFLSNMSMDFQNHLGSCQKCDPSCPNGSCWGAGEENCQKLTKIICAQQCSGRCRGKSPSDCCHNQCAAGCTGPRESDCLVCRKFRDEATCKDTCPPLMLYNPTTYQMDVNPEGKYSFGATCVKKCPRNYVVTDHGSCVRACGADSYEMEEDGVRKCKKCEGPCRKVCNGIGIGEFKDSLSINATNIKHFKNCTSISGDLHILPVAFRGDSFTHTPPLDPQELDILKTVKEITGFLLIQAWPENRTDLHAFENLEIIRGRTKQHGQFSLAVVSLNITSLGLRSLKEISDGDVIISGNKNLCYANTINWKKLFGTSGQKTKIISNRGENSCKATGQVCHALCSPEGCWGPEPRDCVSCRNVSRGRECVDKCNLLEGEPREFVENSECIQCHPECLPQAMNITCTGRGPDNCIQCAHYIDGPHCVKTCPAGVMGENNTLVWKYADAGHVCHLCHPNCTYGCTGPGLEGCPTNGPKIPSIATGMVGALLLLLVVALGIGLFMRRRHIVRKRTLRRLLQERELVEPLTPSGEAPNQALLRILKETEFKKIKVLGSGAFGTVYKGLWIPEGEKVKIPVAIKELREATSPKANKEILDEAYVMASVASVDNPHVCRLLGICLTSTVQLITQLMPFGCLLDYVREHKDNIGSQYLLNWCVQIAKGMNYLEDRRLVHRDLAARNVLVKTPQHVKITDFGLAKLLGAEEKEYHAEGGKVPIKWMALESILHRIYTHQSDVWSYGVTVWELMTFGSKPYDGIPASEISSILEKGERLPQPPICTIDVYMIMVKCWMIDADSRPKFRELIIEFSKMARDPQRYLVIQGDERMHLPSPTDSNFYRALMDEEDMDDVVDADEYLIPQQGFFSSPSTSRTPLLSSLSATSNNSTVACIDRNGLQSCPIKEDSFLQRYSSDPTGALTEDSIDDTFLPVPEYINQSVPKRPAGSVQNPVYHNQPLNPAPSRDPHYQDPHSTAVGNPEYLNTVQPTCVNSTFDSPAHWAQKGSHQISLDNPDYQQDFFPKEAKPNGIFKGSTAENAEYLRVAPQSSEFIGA

`C=CC(=O)Nc1cc(Nc2ncc(C(=O)OC(C)C)c(N3CC(C)(C)c4nc(C)ccc43)n2)c(OC)cc1N(C)C[C@@H]1CCCN1C` [Example 41, isopropyl (S)-2-((5-acrylamido-2-methoxy-4-(methyl((1-methylpyrrolidin-2-yl)methyl)amino)phenyl)amino)-4-(3,3,5-trimethyl-2,3-dihydro-1H-pyrrolo[3,2-b]pyridin-1-yl)pyrimidine-5-carboxylate] gave a pIC50 with A431 (EGFR-WT) of 6.67. The GI50 in assay [1] came out at 36.3 nM.

As to `C=CC(=O)Nc1cc(Nc2ncc(C(=O)OC(C)C)c(N3CC(C)(C)c4nc(C5CC5)ccc43)n2)c(OC)cc1N(C)CCN(C)C` [Example 4, isopropyl 2-((5-acrylamido-4-((2-(dimethylami-no)ethyl)(methyl)amino)-2-methoxy-phenyl)amino)-4-(5-cyclopropyl-3,3-dimethyl-2,3-dihydro-1H-pyrrolo[3,2-b]pyridin-1-yl)pyrimidine-5-carboxylate], the negative-log IC50 (pIC50) with A431 (EGFR-WT) is 6.79. In addition, in assay [1], the GI50 is 59.5 nM.

On to `C=CC(=O)Nc1cc(Nc2ncc(C(=O)OC(C)C)c(N3CC(C)(C)c4nc(C)ccc43)n2)c(OC)cc1N(C)CCN1CCCC1` [Example 66, isopropyl 2-((5-acrylamido-2-methoxy-4-(methyl(2-(pyrrolidin-1-yl)ethyl)amino)phenyl)amino)-4-(3,3,5-trimethyl-2,3-dihydro-1H-pyrrolo[3,2-b]pyridin-1-yl)pyrimidine-5-carboxylate], for which the GI50 in assay [1] is 16.9 nM; in assay [2], 27.2 nM. Molecule `[2H]C([2H])([2H])Oc1cc(N(C)CCN(C)C)c(NC(=O)C=C)cc1Nc1ncc(C(=O)OC(C)C)c(N2CC(C)(C)c3nc(C)ccc32)n1` [Example 27, isopropyl 2-((5-acrylamido-4-((2-(dimethylami-no)ethyl)(methyl)amino)-2-(methoxy-d3)phenyl)amino)-4-(3,3,5-trimethyl-2,3-dihydro-1H-pyrrolo[3,2-b]pyridin-1-yl)pyrimidine-5-carboxylate] had a negative-log IC50 (pIC50) in the assay on A431 (EGFR-WT) of 6.24. In addition, in assay [1], the GI50 stood at 14.1 nM. On to `C=CC(=O)Nc1cc(Nc2ncc(C(=O)OC(C)C)c(N3CC(C)(C)c4nc(C)ccc43)n2)c(OC)cc1N(CC)CCN(C)C` [Example 45, isopropyl 2-((5-acrylamido-4-((2-(dimethylami-no)ethyl)(ethyl)amino)-2-methoxy-phenyl)amino)-4-(3,3,5-trimethyl-2,3-dihydro-1H-pyrrolo[3,2-b]pyridin-1-yl)pyrimidine-5-carboxylate], for which, in assay [1], the GI50 stood at 76.2 nM. Still for that read-out and setting: next, `C=CC(=O)Nc1cc(Nc2ncc(C(=O)OC(C)C)c(N3CC(C)(C)c4nc(C)ccc43)n2)c(OC)cc1N1CC[C@H](N(C)C)C1` [Example 13, isopropyl (S)-2-((5-acrylamido-4-(3-(dimethyl-amino)pyrrolidin-1-yl)-2-methoxy-phenyl)amino)-4-(3,3,5-trimethyl-2,3-dihydro-1H-pyrrolo[3,2-b]pyridin-1-yl)pyrimidine-5-carboxylate]: 78.3 nM; `C=CC(=O)Nc1cc(Nc2ncc(C(=O)OC(C)C)c(N3CC(C)(C)c4nc(C#CC(C)C)ccc43)n2)c(OC)cc1N(C)CCN(C)C` [Example 19, isopropyl 2-((5-acrylamido-4-((2-(dimethylami-no)ethyl)(methyl)amino)-2-methoxy-phenyl)amino)-4-(3,3-dimethyl-5-(3-methylbut-1-yn-1-yl)-2,3-dihydro-1H-pyrrolo[3,2-b]pyridin-1-yl)pyrimidine-5-carboxylate]: 119 nM; `C=CC(=O)Nc1cc(Nc2ncc(C(=O)OC(C)C)c(N3CC4(CC4)c4nc(C)ccc43)n2)c(OC)cc1N1CCC[C@H]1CN(C)C` [Example 51, isopropyl (S)-2-((5-acrylamido-4-(2-((dimethyl-amino)methyl)pyrrolidin-1-yl)-2-meth-oxyphenyl)amino)-4-(5′-methyl-spiro(cyclopropane-1,3′-pyrrolo[3,2-b]pyridin)-1′(2′H)-yl)pyrimidine-5-carboxylate]: 199 nM. The same measure, in the same setting: then `[2H]C([2H])([2H])N(CCN(C)C)c1cc(OC)c(Nc2ncc(C(=O)OC(C)C)c(N3CC4(CC4)c4nc(C)ccc43)n2)cc1NC(=O)C=C` [Example 68, isopropyl 2-((5-acrylamino-4-((2-(dimethylami-no)ethyl)(methyl-d3)amino)-2-methoxyphenyl)amino)-4-(5′-methylspiro(cyclopropane-1,3′-pyrrolo[3,2-b]pyridin)-1′(2′H)-yl)pyrimidine-5-carboxylate], with 30.6 nM; and `C=CC(=O)Nc1cc(Nc2ncc(C(=O)OC(C)C)c(N3CC(C)(C)c4nc(C)ccc43)n2)c(OCC)cc1N(C)CCN(C)C` [Example 37, isopropyl 2-((5-acrylamido-4-((2-(dimethylami-no)ethyl)(methyl)amino)-2-ethoxy-phenyl)amino)-4-(3,3,5-trimethyl-2,3-dihydro-1H-pyrrolo[3,2-b]pyridin-1-yl)pyrimidine-5-carboxylate], with 72.9 nM.

For `C=CC(=O)Nc1cc(Nc2ncc(C(=O)OC(C)C)c(N3CC4(CC(F)(F)C4)c4nc(C)ccc43)n2)c(OC)cc1N(C)CCN(C)C` [Example 24, isopropyl 2-((5-acrylamido-4-((2-(dimethylami-no)ethyl)(methyl)amino)-2-methoxy-phenyl)amino)-4-(3,3-difluoro-5′-methylspiro(cyclobutane-1,3′-pyrrolo[3,2-b]pyridin)-1′(2′H)-yl)pyrimidine-5-carboxylate], in assay [1], the GI50 turned out to be 111 nM. The same measure, in the same setting: then `C=CC(=O)Nc1cc(Nc2ncc(C(=O)OC(C)C)c(N3CC(C)(C)c4nc(C)ccc43)n2)c(OC)cc1N1CCN(C2CC2)CC1` [Example 39, isopropyl 2-((5-acrylamido-4-(4-cyclopropyl-piperazin-1-yl)-2-methoxy-phenyl)amino)-4-(3,3,5-trimethyl-2,3-dihydro-1H-pyrrolo[3,2-b]pyridin-1-yl)pyrimidine-5-carboxylate], with 545 nM. In turn, `C=CC(=O)Nc1cc(Nc2ncc(C(=O)OC(C)C)c(N3CC(C)(C)c4nc(C)ccc43)n2)c(OC)nc1N1CC[C@@H](N(C)C)C1` [Example 35, isopropyl (R)-2-((5-acrylamido-6-(3-(dimethyl-amino)pyrrolidin-1-yl)-2-methoxy-pyridin-3-yl)amino)-4-(3,3,5-trimethyl-2,3-dihydro-1H-pyrrolo[3,2-b]pyridin-1-yl)pyrimidine-5-carboxylate] gave a pIC50 with A431 (EGFR-WT) of 5.97. For the same molecule, the GI50 in assay [1] came to 36 nM.

On to `C=CC(=O)Nc1cc(Nc2ncc(C(=O)OC(C)C)c(N3CC(C)(C)c4nc(C(C)C)ccc43)n2)c(OC)cc1N(C)CCN(C)C` [Example 16, isopropyl 2-((5-acrylamido-4-((2-(dimethylami-no)ethyl)(methyl)amino)-2-methoxy-phenyl)amino)-4-(5-isopropyl-3,3-dimethyl-2,3-dihydro-1H-pyrrolo[3,2-b]pyridin-1-yl)pyrimidine-5-carboxylate], for which, in assay [1], the GI50 turned out to be 309 nM. Same read-out and setting: next, `C=CC(=O)Nc1cc(Nc2ncc(C(=O)OC(C)C)c(N3CC(C)(C)c4nc(C#CC5CC5)ccc43)n2)c(OC)cc1N(C)CCN(C)C` [Example 18, isopropyl 2-((5-acrylamido-4-((2-(dimethylami-no)ethyl)(methyl)amino)-2-methoxy-phenyl)amino)-4-(5-(cyclo-propylethynyl)-3,3-dimethyl-2,3-dihydro-1H-pyrrolo[3,2-b]pyridin-1-yl)pyrimidine-5-carboxylate]: 50.8 nM.
